# Molecular target: T1, human TPO receptor (hTPOR) (Homo sapiens, UniProt P40238)
# T1 construct: expressed in transfected cells; host or cells: BaF-B03 (murine IL-3 dependent cell line)
# T1 sequence (P40238 26-635): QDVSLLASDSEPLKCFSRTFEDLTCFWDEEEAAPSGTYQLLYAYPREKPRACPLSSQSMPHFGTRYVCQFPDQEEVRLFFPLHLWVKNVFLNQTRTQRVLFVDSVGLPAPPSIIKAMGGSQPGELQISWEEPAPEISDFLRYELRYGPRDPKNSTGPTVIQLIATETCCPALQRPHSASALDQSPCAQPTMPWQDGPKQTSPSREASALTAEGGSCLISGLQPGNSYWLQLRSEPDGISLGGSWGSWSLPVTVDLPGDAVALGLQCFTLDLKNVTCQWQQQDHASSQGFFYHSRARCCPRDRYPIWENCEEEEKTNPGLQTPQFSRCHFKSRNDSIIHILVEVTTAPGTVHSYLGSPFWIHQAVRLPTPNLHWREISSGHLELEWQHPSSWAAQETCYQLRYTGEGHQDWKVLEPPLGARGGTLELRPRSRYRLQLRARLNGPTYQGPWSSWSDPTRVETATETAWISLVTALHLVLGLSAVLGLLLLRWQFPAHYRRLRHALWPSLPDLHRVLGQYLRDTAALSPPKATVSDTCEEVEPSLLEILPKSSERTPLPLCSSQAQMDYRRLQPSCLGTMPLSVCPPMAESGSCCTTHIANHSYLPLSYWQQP
# Experiment: Thrombopoietic activity: proliferation of TPO dependent BaF/hTPOR cells (WST-1, absorbance at 450 nm)
# Format: cell-based
# Settings: 20 h + 4 h WST-1, ED50 = half concentration of the concentration showing the maximum thrombopoietic activity, Table 1
# In short: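 Proliferation read-out: WST-1 absorbance at 450 nm after 20 h compound exposure plus 4 h reagent, using IL-3-deprived BaF/hTPOR cells (5×10^4 per well) dependent on human TPO receptor signalling. ED50 defined as half the concentration producing maximal activity.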
row,EC50 [nM],SMILES
1,6.3,"CCCCCCCCCCC(OC)c1cccc(-c2csc(NC(=O)c3cc(Cl)c(/C=C(\OC)C(=O)O)c(Cl)c3)n2)c1OC (centres unmarked) [Compound B1438, (Z)-3-(2,6-dichloro-4-{4-[2-methyloxy-3-(1-methyloxyundecyl)phenyl]thiazol-2-ylcarbamoyl}phenyl)-2-methyloxyacrylic acid]"
2,17.3,"CCCOCCCC(OC)c1cccc(-c2csc(NC(=O)c3cc(F)c(/C=C(\C)C(=O)O)c(F)c3)n2)c1OC (centres unmarked) [Compound B1799, (E)-3-(2,6-difluoro-4-{4-[2-methyloxy-3-(1-methyloxy-4-propyloxybutyl)phenyl]thiazol-2-ylcarbamoyl}phenyl)-2-methylacrylic acid]"
3,19,"COc1c(CCCOCC(C)(C)C)cccc1-c1csc(NC(=O)c2cc(Cl)c(/C=C(\C)C(=O)O)c(Cl)c2)n1 [Compound B1833, (E)-3-[2,6-dichloro-4-(4-{3-[3-(2,2-dimethylpropyloxy)propyl)-2-methyloxyphenyl]thiazol-2-ylcarbamoyl}phenyl)-2-methylacrylic acid]"
4,15.9,"CCC(CC)COCCCc1cccc(-c2csc(NC(=O)c3cc(F)c(/C=C(\C)C(=O)O)c(F)c3)n2)c1OC [Compound B1848, (E)-3-[4-(4-{3-[3-(2-ethylbutyloxy)propyl]-2-methyloxyphenyl}thiazol-2-ylcarbamoyl)-2,6-difluorophenyl]-2-methylacrylic acid]"
5,16.8,"COc1c(CCCOCCC(C)C)cccc1-c1csc(NC(=O)c2cc(F)c(/C=C(\C)C(=O)O)c(F)c2)n1 [Compound B1851, (E)-3-[2,6-difluoro-4-(4-{2-methyloxy-3-[3-(3-methylbutyloxy)propyl]phenyl}thiazol-2-ylcarbamoyl)phenyl]-2-methylacrylic acid]"
6,16.5,"COc1c(CCCOCCC(C)C)cccc1-c1csc(NC(=O)c2cc(Cl)c(/C=C(\C)C(=O)O)c(Cl)c2)n1 [Compound B1852, (E)-3-[2,6-dichloro-4-(4-{2-methyloxy-3-[3-(3-methylbutyloxy)propyl]phenyl}thiazol-2-ylcarbamoyl)phenyl]-2-methylacrylic acid]"
7,13,"COc1c(CCCOCC(C)C)cccc1-c1csc(NC(=O)c2cc(F)c(/C=C(\C)C(=O)O)c(F)c2)n1 [Compound B1877, (E)-3-(2,6-difluoro-4-{4-[3-(3-isobuyloxypropyl)-2-methyloxyphenyl]thiazol-2-ylcarbamoyl}phenyl)-2-methylacrylic acid]"
8,18.1,"CCC(CC)OCc1cccc(-c2csc(NC(=O)c3cc(F)c(/C=C(\C)C(=O)O)c(F)c3)n2)c1OC [Compound B1890, (E)-3-(4-{4-[3-(1-ethylpropyloxymethyl)-2-methyloxyphenyl]thiazol-2-ylcarbamoyl}-2,6-difluorophenyl)-2-methylacrylic acid]"
9,11.6,"CCC(CC)OCc1cccc(-c2csc(NC(=O)c3cc(Cl)c(/C=C(\C)C(=O)O)c(Cl)c3)n2)c1OC [Compound B1892, (E)-3-(2,6-dichloro-4-{4-[3-(1-ethylpropyloxymethyl)-2-methyloxyphenyl]thiazol-2-ylcarbamoyl}phenyl)-2-methylacrylic acid]"
10,14.5,"COc1c(CCOCCCC(C)C)cccc1-c1csc(NC(=O)c2cc(F)c(/C=C(\C)C(=O)O)c(F)c2)n1 [Compound B1920, (E)-3-[2,6-difluoro-4-(4-{2-methyloxy-3-[2-(4-methylpentyloxy)ethyl]phenyl}thiazol-2-ylcarbamoyl)phenyl)-2-methylacrylic acid]"
11,13.6,"COc1c(CCOCCCC(C)C)cccc1-c1csc(NC(=O)c2cc(Cl)c(/C=C(\C)C(=O)O)c(Cl)c2)n1 [Compound B1922, (E)-3-[2,6-dichloro-4-(4-{2-methyloxy-3-[2-(4-methylpentyloxy)ethyl]phenyl}thiazol-2-ylcarbamoyl)phenyl)-2-methylacrylic acid]"

row,SMILES,EC50 [nM]
1,CCCCCOCc1cccc(-c2csc(NC(=O)c3cc(F)c(/C=C(\C)C(=O)O)c(F)c3)n2)c1OC [Compound B1884],16.9
2,COc1c(OCCC2CCCCC2)cccc1-c1csc(NC(=O)c2cc(F)c(/C=C(\C)C(=O)O)c(F)c2)n1 [Compound B1916],12.9

# Same assay, conditions: 20 h + 4 h WST-1, ED50 = half concentration of the concentration showing the maximum thrombopoietic activity, Table 2
row,EC50 [nM],SMILES
1,21,"CCCCOCCc1cccc(-c2csc(NC(=O)c3cc(Cl)c(/C=C(\C)C(=O)O)c(Cl)c3)n2)c1OC [Compound B1836, (E)-3-(4-{4-[3-(2-butyloxyethyl)-2-methyloxyphenyl]thiazol-2-ylcarbamoyl}-2,6-dichlorophenyl)-2-methylacrylic acid]"
2,22.5,"CCC(CC)COCCCc1cccc(-c2csc(NC(=O)c3cc(Cl)c(/C=C(\C)C(=O)O)c(Cl)c3)n2)c1OC [Compound B1849, (E)-3-[2,6-dicholoro-4-(4-{3-[3-(2-ethylbutyloxy)propyl]-2-methyloxyphenyl}thiazol-2-ylcarbamoyl)phenyl]-2-methylacrylic acid]"
3,24.4,"COc1c(CCCOCC2CCC2)cccc1-c1csc(NC(=O)c2cc(F)c(/C=C(\C)C(=O)O)c(F)c2)n1 [Compound B1854, (E)-3-(4-{4-[3-(3-cyclobutylmethyloxypropyl)-2-methyloxyphenyl]thiazol-2-ylcarbamoyl}-2,6-difluorophenyl)-2-methylacrylic acid]"
4,21.3,"COc1c(CCCOCC2CCC2)cccc1-c1csc(NC(=O)c2cc(Cl)c(/C=C(\C)C(=O)O)c(Cl)c2)n1 [Compound B1855, (E)-3-(2,6-dichloro-4-{4-[3-(3-cyclobutylmethyloxypropyl)-2-methyloxyphenyl]thiazol-2-ylcarbamoyl}phenyl)-2-methylacrylic acid]"
5,22.8,"CCCCCC(OC)c1cccc(-c2nc(NC(=O)c3cc(Cl)c(/C=C(\OC)C(=O)O)c(Cl)c3)sc2OC)c1F (centres unmarked) [Compound B1861, (Z)-3-(2,6-dichloro-4-{4-[2-fluoro-3-(1-methyloxyhexyl)phenyl]-5-methyoxythiazol-2-ylcarbamoyl}phenyl)-2-methyloxyacrylic acid]"
6,22.8,"CCCOCCCc1cccc(-c2nc(NC(=O)c3cc(Cl)c(/C=C(\C)C(=O)O)c(Cl)c3)sc2OC)c1 [Compound B1863, (E)-3-(2,6-dichloro-4-{5-methyloxy-4-[3-(3-propyloxypropyl)phenyl]thiazol-2-ylcarbamoyl}phenyl)-2-methylacrylic acid]"
7,21.2,"COc1c(CCCOCC(C)C)cccc1-c1csc(NC(=O)c2cc(Cl)c(/C=C(\C)C(=O)O)c(Cl)c2)n1 [Compound B1878, (E)-3-(2,6-dichloro-4-{4-[3-(3-isobuyloxypropyl)-2-methyloxyphenyl]thiazol-2-ylcarbamoyl}phenyl)-2-methylacrylic acid]"
8,23.2,"CO/C(=C\c1c(F)cc(C(=O)Nc2nc(-c3cccc(CCCOCC(C)(C)C)c3)c(OC)s2)cc1F)C(=O)O [Compound B1900, (Z)-3-[4-(4-{3-[3-(2,2-dimethylpropyloxy)propyl]phenyl}-5-methyloxythiazol-2-ylcarbamoyl)-2,6-difluorophenyl]-2-methyloxyacrylic acid]"
9,24.2,"CO/C(=C\c1c(Cl)cc(C(=O)Nc2nc(-c3cccc(CCCOCC(C)(C)C)c3)c(OC)s2)cc1Cl)C(=O)O [Compound B1901, (Z)-3-[2,6-dichloro-4-(4-{3-[3-(2,2-dimethylpropyloxy)propyl]phenyl}-5-methyloxythiazol-2-ylcarbamoyl)phenyl]-2-methyloxyacrylic acid]"
10,24.6,"CO/C(=C\c1c(F)cc(C(=O)Nc2nc(-c3cccc(CCCOCC(C)(C)C)c3F)c(OC)s2)cc1F)C(=O)O [Compound B1904, (Z)-3-[4-(4-{3-[3-(2,2-dimethylpropyloxy)propyl]-2-fluorophenyl}-5-methyloxythiazol-2-ylcarbamoyl)-2,6-difluorophenyl]-2-methyloxyacrylic acid]"
11,26.3,"CO/C(=C\c1c(F)cc(C(=O)Nc2nc(-c3cccc(C(OC)C(C)(C)C)c3F)c(OC)s2)cc1F)C(=O)O (centres unmarked) [Compound B1908, (Z)-3-(2,6-difluoro-4-{4-[2-fluoro-3-(1-methyloxy-2,2-dimethylpropyl)phenyl]-5-methyloxythiazol-2-ylcarbamoyl}phenyl)-2-methyloxyacrylic acid]"
12,25.9,"CO/C(=C\c1c(Cl)cc(C(=O)Nc2nc(-c3cccc(C(OC)C(C)(C)C)c3F)c(OC)s2)cc1Cl)C(=O)O (centres unmarked) [Compound B1909, (Z)-3-(2,6-dichloro-4-{4-[2-fluoro-3-(1-methyloxy-2,2-dimethylpropyl)phenyl]-5-methyloxythiazol-2-ylcarbamoyl}phenyl)-2-methyloxyacrylic acid]"

row,SMILES,EC50 [nM]
1,CCCCCOCc1cccc(-c2csc(NC(=O)c3cc(Cl)c(/C=C(\C)C(=O)O)c(Cl)c3)n2)c1OC [Compound B1886],22.1
2,CO/C(=C\c1c(Cl)cc(C(=O)Nc2nc(-c3cccc(CCCOCC(C)(C)C)c3F)c(OC)s2)cc1Cl)C(=O)O [Compound B1905],26.7
3,COc1c(OCCC2CCCCC2)cccc1-c1csc(NC(=O)c2cc(Cl)c(/C=C(\C)C(=O)O)c(Cl)c2)n1 [Compound B1918],21
4,CO/C(=C\c1c(Cl)cc(C(=O)Nc2nc(-c3cccc(OCCC4CCCCC4)c3OC)cs2)cc1Cl)C(=O)O [Compound B1919],27.9

# — patent US7601746B2 (Shionogi & Co., Ltd., priority 2003, dated 2009)
